These results are taken from patent US11369587B2, “Injectable pharmaceutical composition of tecovirimat and preparation method thereof” (priority 2016, dated 2022).

A word on the solubility: it is the dissolved amount per volume that the medium holds.

For series [1] the following is noted: 20%-40% (w/v) hydroxypropyl-cyclodextrin (HP-3-CD) at 37° C.; cited from earlier work.
The format of series [2] is physicochemical. The note with it: ternary solubilizing composition of Tecovirimat, cyclodextrin and Meglumine. How it is done:
An excessive amount of Tecovirimat was added to an aqueous solution comprising meglumine and cyclodextrin at a different ratio to form a suspension. The suspension was placed in a constant-temperature incubation shaker, and was shaken at a temperature of 25±1° C., 37±1° C. and 60±1° C. for 72 h, respectively. After reaching equilibrium, the suspension was filtered through a 0.45 μm hydrophilic filter membrane to obtain a filtrate. After the filtrate was properly diluted with an acetonitrile-water (50:50, v/v) solution, the absorbance was measured at 224 nm, and the solubility of Tecovirimat was calculated. The corresponding solubility curve was plotted by using the solubility of the drug as the ordinate, and using the concentration of cyclodextrin and/or meglumine as the abscissa.

For the molecule `O=C(NN1C(=O)[C@@H]2[C@@H]3C=C[C@@H]([C@H]4C[C@@H]34)[C@@H]2C1=O)c1ccc(C(F)(F)F)cc1` [Tecovirimat, 4-trifluoromethyl-N-(3,3a,4,4a,5,5a,6,6a-octahydro-1,3-dioxo-4,6-ethenocycloprop[f]isoindol-2(1H)-yl)-benzamide], the solubility in series [1] was 1500 to 11000 µg/mL. Further, the maximal solubility entry in series [2] was “up to 152 mg/ml”.
